Several values for one entry are separate records, joined by “and”; a condition that tells them apart may be missing. Equal values may be shown once.
Tests used:
Details in all cases: incubation time: 72 h
[1] = tested on: CAL-85-1; experiment: drug sensitivity score (DSS), CellTiter-Glo (DSS (AUC-based score)); higher = stronger drug effect (viability inhibition or cytotoxicity); extreme values may be limits of the assay
Summary of the method: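 Using 20 µl of cell suspension per well, breast cancer cell lines were seeded into 384-well plates pre-loaded with compound at 5 concentrations in 10-fold steps across a compound-specific 10,000-fold range. Incubation lasted 72 h, after which CellTox Green fluorescence at 485/520 nm and then CellTiter-Glo luminescence, following 10 min at room temperature, were recorded. Each plate was normalised to 0.1 % DMSO and a positive kill control before the drug sensitivity score was derived from the area under the fitted dose-response curve.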

[2] = tested on: CAL-51; experiment: normalised viability (% of control), CellTiter-Blue; higher = more viable cells (100 = DMSO, 0 = benzethonium chloride kill control)
Experimental: (§1)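 DSRT, CellTiter-Blue viability, 72 h incubation. Signal is normalised to DMSO and benzethonium chloride controls. Value is the normalised response at dose 1.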

[3] = tested on: HCC1937; experiment: as above
Experimental: as §1

[4] = tested on: HDQ-P1; experiment: as above
Experimental: as §1

[5] = tested on: MDA-MB-231; experiment: as above
Experimental: as §1

[6] = tested on: CAL-120; experiment: as above
Experimental: as §1

[7] = tested on: Hs578T; experiment: as above
Experimental: as §1

[8] = tested on: MDA-MB-468; experiment: as above
Experimental: as §1

[9] = tested on: MDA-MB-436; experiment: as above
Experimental: as §1

[10] = tested on: MDA-MB-453; experiment: as above
Experimental: as §1

[11] = tested on: CAL-85-1; experiment: as above
Experimental: as §1

[12] = tested on: DU-4475; experiment: as above
Experimental: as §1

[13] = tested on: MFM-223; experiment: as above
Experimental: as §1

[14] = tested on: BT-474; experiment: as above
Experimental: as §1

[15] = tested on: CAL-148; experiment: as above
Experimental: as §1

[16] = tested on: SK-BR-3; experiment: as above
Experimental: as §1

[17] = tested on: BT-549; experiment: as above
Experimental: as §1

[18] = tested on: HCC1599; experiment: as above
Experimental: as §1

[19] = tested on: HCC1143; experiment: as above
Experimental: as §1

[20] = tested on: CAL-51; experiment: normalised viability (% of control), CellTiter-Blue; higher = more viable cells (about 100 = DMSO control)
Experimental: (§2)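 DSRT, CellTiter-Blue viability, 72 h incubation. Signal is normalised to DMSO and benzethonium chloride controls. Value is the normalised response at dose 7.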

[21] = tested on: HDQ-P1; experiment: as above
Experimental: as §2

[22] = tested on: MDA-MB-453; experiment: as above
Experimental: as §2

[23] = tested on: CAL-85-1; experiment: as above
Experimental: as §2

[24] = tested on: DU-4475; experiment: as above
Experimental: as §2

[25] = tested on: CAL-148; experiment: as above
Experimental: as §2

`Cc1c(Cn2c(C)nc3c(C(=O)O)cc(N4CCOCC4)cc32)cccc1C(F)(F)F` was tested, and the drug sensitivity score [1] was 0.
For `Cc1cccc(-c2nn3c(c2-c2ccnc4ccc(C(N)=O)cc24)CCC3)n1`, the normalised viability ([2]; 0.1 nM) was 93.5%, the normalised viability ([3]; 0.1 nM) was 91.3% and the normalised viability ([4]; 0.1 nM) was 109%. For the same molecule, the normalised viability ([5]; 0.1 nM) was 113%, the normalised viability ([6]; 0.1 nM) was 98.2% and the normalised viability ([7]; 0.1 nM) was 113%. It also gave a normalised viability ([8]; 0.1 nM) of 108%, a normalised viability ([9]; 0.1 nM) of 128% and a normalised viability ([10]; 0.1 nM) of 108%. For the same molecule, the normalised viability ([11]; 0.1 nM) was 92.6%, the normalised viability ([12]; 0.1 nM) was 113% and the normalised viability ([13]; 0.1 nM) was 103%. The normalised viability ([14]; 0.1 nM) was 116%, the normalised viability ([15]; 0.1 nM) was 104% and the normalised viability ([16]; 0.1 nM) was 106%. The normalised viability ([17]; 0.1 nM) was 104%, the normalised viability ([18]; 0.1 nM) was 99.3% and the normalised viability ([19]; 0.1 nM) was 110%.
With `COc1ccc(-c2cc3c(C)nc(N)nc3n([C@H]3CC[C@H](OCCO)CC3)c2=O)cn1` (1000 nM) the normalised viability [20] was 12.9%, the normalised viability [21] was 12.2% and the normalised viability [22] was 7.65%. The normalised viability [23] was 23.1%, the normalised viability [24] was 42.9% and the normalised viability [25] was 18.1%.
`Nc1nc(=O)c2c([nH]1)NCC(CNc1ccc(C(=O)N[C@@H](CCC(=O)O)C(=O)O)cc1)N2C=O` (mixture of isomers) [Folinic acid] gave a normalised viability ([2]; 0.099 nM) of 92.7%, a normalised viability ([3]; 0.099 nM) of 95.9% and a normalised viability ([4]; 0.099 nM) of 131%. For the same molecule, the normalised viability ([5]; 0.099 nM) was 101%, the normalised viability ([6]; 0.099 nM) was 95.4% and the normalised viability ([7]; 0.099 nM) was 105%. The normalised viability ([8]; 0.099 nM) was 117%, the normalised viability ([9]; 0.099 nM) was 113% and the normalised viability ([10]; 0.099 nM) was 104%. The normalised viability ([11]; 0.099 nM) was 98.4%, the normalised viability ([12]; 0.099 nM) was 113% and the normalised viability ([13]; 0.099 nM) was 105%. It also gave a normalised viability ([14]; 0.099 nM) of 91.7%, a normalised viability ([15]; 0.099 nM) of 102% and a normalised viability ([16]; 0.099 nM) of 112%. For the same molecule, the normalised viability ([17]; 0.099 nM) was 94.1%, the normalised viability ([18]; 0.099 nM) was 117% and the normalised viability ([19]; 0.099 nM) was 107%.
With `CC/C(=C(\c1ccc(O)cc1)c1ccc(OCCN(C)C)cc1)c1ccccc1` [4-hydroxytamoxifen] the drug sensitivity score [1] was 3.01.
With `CCCCC/C=C/C=C1/C(=O)C=C[C@@H]1C/C=C\CCCC(=O)O` [15D-PGJ2] the drug sensitivity score [1] was 0.
`O=C(Nc1c[nH]nc1-c1nc2ccc(CN3CCOCC3)cc2[nH]1)NC1CC1` [AT9283] (1000 nM) showed a normalised viability [20] of 51.3%, a normalised viability [21] of 50.3% and a normalised viability [22] of 42%. It also gave a normalised viability [23] of 55.4%, a normalised viability [24] of 10.3% and a normalised viability [25] of 67.3%.
For `COc1cc(CCc2cc(NC(=O)c3ccc(N4CC(C)NC(C)C4)cc3)n[nH]2)cc(OC)c1` (stereo not given) [AZD4547] (100 nM), the normalised viability [20] was 101%, the normalised viability [21] was 106% and the normalised viability [22] was 78.1%. For the same molecule, the normalised viability [23] was 74.9%, the normalised viability [24] was 84.3% and the normalised viability [25] was 106%.
With `CC(=O)OC[C@H]1O[C@@H]([S-])[C@H](OC(C)=O)[C@@H](OC(C)=O)[C@@H]1OC(C)=O.CCP(CC)CC.[Au+]` [Auranofin] the drug sensitivity score [1] was 6.05.
Molecule `CCC/C=C/C=C/C(=O)O[C@H]1/C(=C/C(=O)OC)C[C@H]2C[C@H]([C@@H](C)O)OC(=O)C[C@H](O)C[C@@H]3C[C@H](OC(C)=O)C(C)(C)[C@](O)(C[C@@H]4C/C(=C/C(=O)OC)C[C@H](/C=C/C(C)(C)[C@]1(O)O2)O4)O3` [Bryostatin 1] (10 nM) has a normalised viability [20] of 109%, a normalised viability [21] of 118% and a normalised viability [22] of 92.2%. For the same molecule, the normalised viability [23] was 98.7%, the normalised viability [24] was 76.5% and the normalised viability [25] was 98.1%.
In the case of `CO[C@@H](C(=O)N1Cc2[nH]nc(NC(=O)c3ccc(N4CCN(C)CC4)cc3)c2C1)c1ccccc1` [Danusertib] (1000 nM), the normalised viability [20] is reported as 44.9%, the normalised viability [21] is reported as 45.6% and the normalised viability [22] is reported as 41.7%. The normalised viability [23] was 50.8%, the normalised viability [24] was 46.3% and the normalised viability [25] was 47.2%.
For `Cc1nc(Nc2ncc(C(=O)Nc3c(C)cccc3Cl)s2)cc(N2CCN(CCO)CC2)n1` [Dasatinib] (100 nM), the normalised viability [20] was 47.8% and 48.7%, the normalised viability [21] was 15.8% and 11.4% and the normalised viability [22] was 88.2% and 94.5%. For the same molecule, the normalised viability [23] was 56.4% and 53%, the normalised viability [24] was 95.1% and 108% and the normalised viability [25] was 109% and 93.3%.
`Cc1c(CN2CCN(C(=O)[C@H](C)O)CC2)sc2c(N3CCOCC3)nc(-c3cnc(N)nc3)nc12` [GDC-0980] (1000 nM) showed a normalised viability [20] of 16.5%, a normalised viability [21] of 24.7% and a normalised viability [22] of 8.12%. For the same molecule, the normalised viability [23] was 27.1%, the normalised viability [24] was 50.2% and the normalised viability [25] was 15.3%.
With `Cc1cccc(-c2nn3c(c2-c2ccnc4ccc(C(N)=O)cc24)CCC3)n1` [Galunisertib] the drug sensitivity score [1] was 0.
`Nc1cccc2c1CN(C1CCC(=O)NC1=O)C2=O` (stereo not given) [Lenalidomide] (1000 nM) was tested, and the normalised viability [20] was 103% and 100%, the normalised viability [21] was 110% and 96.9% and the normalised viability [22] was 85.6% and 104%. The normalised viability [23] was 80% and 74.3%, the normalised viability [24] was 110% and 88.9% and the normalised viability [25] was 95.3% and 104%.
In the case of `C[C@]12O[C@H](C[C@]1(O)CO)n1c3ccccc3c3c4c(c5c6ccccc6n2c5c31)CNC4=O` [Lestaurtinib] (100 nM), the normalised viability [20] is reported as 110%, the normalised viability [21] is reported as 87.8% and the normalised viability [22] is reported as 75.1%. It also gave a normalised viability [23] of 99.5%, a normalised viability [24] of 79.6% and a normalised viability [25] of 104%.

From the supplement of paper PMC4862054
